Reference: patent publication US9612237B2, “Ritalinic acid immunoassay” (Randox Laboratories Limited, priority 2013, dated 2017)
≈ marks a conversion by molar mass, not a printed value. Where a name gives a salt, the structure may show the parent alone.

Legend:
[1] = system: antisera generated in response to immunogen of Example 11; assay: Competitive chemiluminescent biochip immunoassay, antisera raised against immunogen of Example 11, conjugate of Example 12; format: binding, sheep; details: for Concentration exhibiting no cross-reactivity: value is the concentration at which no cross-reactivity was exhibited; for IC50 / % cross reactivity: biochip; for % cross reactivity: relative to methylphenidate = 100
[2] = system: antibodies of the invention (antisera generated in response to immunogen of Example 5); assay: Competitive chemiluminescent biochip immunoassay, antiserum raised against immunogen of Example 5, HRP conjugate of Example 6; format: binding, sheep; details: for No measurable CR at given concentration: value is the concentration at which no cross-reactivity was exhibited; for Cross-reactivity / IC50: biochip; for Cross-reactivity: based on 100% specificity to RA; for IC50: calibrator concentration which produces 50% B/B0
[3] = system: antibodies of the invention (antisera generated in response to immunogen of Example 5); assay: ELISA, antiserum raised against immunogen of Example 5, HRP conjugate of Example 6; format: binding, sheep; details: for Ave OD: absorbance at 450 nm; for % CR: relative to ritalinic acid = 100
Procedure: Immunogen (2 mg) from Examples 5 or 11 was prepared in PBS, mixed at a ratio of 50% immunogen in PBS to 50% Freund's Complete Adjuvant (Sigma, Product Number F5881) and emulsified by repeatedly passing the mixture through a tip on the end of a 1 ml syringe, until semi-solid. The emulsified mixture (1 ml) was injected intramuscularly into the sheep (the primary immunisation dose). Further injections (boosts) were prepared (1 mg of immunogen is prepared in PBS and mixed at a ratio of 50% immunogen PBS/50% Freunds Incomplete adjuvant, Sigma, Product Number—F5506) and injected (1 ml) intramuscularly at monthly intervals. Serum was sampled monthly by collection of whole blood from the jugular vein for evaluation of the antibody titre. Prior to immobilisation on a solid substrate (for example, the biochip), the serum was purified using caprylic acid/ammonium sulphate precipitation, as described for example in Chapter 4 of “Making and Using Antibodies—A Practical Handbook” 2nd Edition, edited by G C Howard and M R Kaser, CRC Press.
The ELISA data provided below correspond to the same immunogen, antibody and tracer combination used to generate the Biochip standard curves, i.e. antibodies of the invention (antisera generated in response to immunogen of Example 5) and (2-(4-aminophenyl)-2-(piperidin-2-yl) acetic acid conjugated to HRP (Example 6). The assay methodology used to generate the ELISA data was standard ELISA methodology. Briefly, a microtitre plate was coated with Ig fraction of the antiserum produced at 5 μg/ml, prepared in Tris buffer, pH8.5. The coated plate was simultaneously incubated with calibrator/sample (from 0 ng/ml-80 ng/ml) and HRP conjugate at ⅛K dilution. After washing and substrate addition, absorbances were read at 450 nm. The absorbance in each well was inversely proportional to the concentration of ritalinic acid or methylphenidate hydrochloride in the calibrator/sample added to that well.

[4] = system: Abcam polyclonal sheep antibody to MPH; details: Abcam antibody raised using MPH-BTG as the immunogen; cited from earlier work
[5] = Methylphenidate calibrator 78.13 ng/ml
[6] = Methylphenidate calibrator 156.25 ng/ml
[7] = Methylphenidate calibrator 312.50 ng/ml
[8] = Methylphenidate calibrator 625 ng/ml
[9] = Methylphenidate calibrator 1,250.00 ng/ml
[10] = Methylphenidate calibrator 2,500.00 ng/ml
[11] = Methylphenidate calibrator 5,000.00 ng/ml
[12] = Methylphenidate calibrator 10,000.00 ng/ml

In the case of `O=C(O)c1ccccc1O` [Salicylic acid], the “Concentration exhibiting no cross-reactivity” value [1] is reported as 1 mg/mL and the “No measurable CR at given concentration” value [2] is reported as 1000 µg/mL.

In the case of `O=C(CCCN1CCC(O)(c2ccc(Cl)cc2)CC1)c1ccc(F)cc1` [Haloperidol], the “Concentration exhibiting no cross-reactivity” value [1] is reported as 0.01 mg/mL and the “No measurable CR at given concentration” value [2] is reported as 10 µg/mL.

In the case of `COC(=O)C(c1ccccc1)C1CCCCN1` (stereo not shown) [Methylphenidate, methylphenidate], the IC50 [1] is reported as 2.6 ng/mL (≈ 0.0111 µM), the “% cross reactivity” value [1] is reported as 100% and the B/B0 % [2, 5] is reported as 87%. For the same compound, the RLU [2, 5] was 3878 RLU, the B/B0 % [2, 6] was 81% and the RLU [2, 6] was 3604 RLU. It also gave a B/B0 % [2, 7] of 75%, an RLU [2, 7] of 3319 RLU and a B/B0 % [2, 8] of 66%. It also gave an RLU [2, 8] of 2912 RLU, a B/B0 % [2, 9] of 51% and an RLU [2, 9] of 2244 RLU. It also gave a B/B0 % [2, 10] of 34%, an RLU [2, 10] of 1517 RLU and a B/B0 % [2, 11] of 23%. It also gave an RLU [2, 11] of 1015 RLU, a B/B0 % [2, 12] of 16% and an RLU [2, 12] of 697 RLU. For the same compound, the Cross-reactivity [2] was “Cross-reactivity 0.4%” and the IC50 [2] was “IC50 = 1,323.50 ng/ml”.

With `CC(C)Cc1ccc(C(C)C(=O)O)cc1` (stereo not shown) [Ibuprofen] the “Concentration exhibiting no cross-reactivity” value ([1]; listed as ibuprofen) was 1 mg/mL and the “No measurable CR at given concentration” value [2] was 1000 µg/mL.

For `O=C(O)C(c1ccccc1)C1CCCCN1` (stereo not shown) [RA, ritalinic acid], the IC50 [3] was 8.41 ng/mL, the “Ave OD” value ([3]; calibrator 1.25 ng/ml) was 1.346 and the “Ave OD” value ([3]; calibrator 2.5 ng/ml) was 1.169. For the same compound, the “Ave OD” value ([3]; calibrator 5 ng/ml) was 0.987, the “Ave OD” value ([3]; calibrator 10 ng/ml) was 0.751 and the “Ave OD” value ([3]; calibrator 20 ng/ml) was 0.584. The “Ave OD” value ([3]; calibrator 40 ng/ml) was 0.424, the “Ave OD” value ([3]; calibrator 80 ng/ml) was 0.311 and the B/Bo ([3]; calibrator 1.25 ng/ml) was 82.4. The B/Bo ([3]; calibrator 2.5 ng/ml) was 71.5, the B/Bo ([3]; calibrator 5 ng/ml) was 60.4 and the B/Bo ([3]; calibrator 10 ng/ml) was 46.0. For the same compound, the B/Bo ([3]; calibrator 20 ng/ml) was 35.7, the B/Bo ([3]; calibrator 40 ng/ml) was 26.0 and the B/Bo ([3]; calibrator 80 ng/ml) was 19.0. The “% CR” value [3] was 100%, the IC50 [1] was 260 ng/mL (≈ 1.19 µM) and the “% cross reactivity” value [1] was 1%. For the same compound, the “% cross reactivity” value ([1]; listed as ritalinic acid) was 1.0%, the Cross-reactivity [4] was “less than 0.9%” and the B/B0 % ([2]; RA calibrator 3.91 ng/ml) was 65%. It also gave an RLU ([2]; RA calibrator 3.91 ng/ml) of 3459 RLU, a B/B0 % ([2]; RA calibrator 7.81 ng/ml) of 40% and an RLU ([2]; RA calibrator 7.81 ng/ml) of 2552 RLU. For the same compound, the B/B0 % ([2]; RA calibrator 15.63 ng/ml) was 31%, the RLU ([2]; RA calibrator 15.63 ng/ml) was 1980 RLU and the B/B0 % ([2]; RA calibrator 31.25 ng/ml) was 18%. The RLU ([2]; RA calibrator 31.25 ng/ml) was 1111 RLU, the B/B0 % ([2]; RA calibrator 62.50 ng/ml) was 11% and the RLU ([2]; RA calibrator 62.50 ng/ml) was 677 RLU. For the same compound, the B/B0 % ([2]; RA calibrator 125.00 ng/ml) was 6%, the RLU ([2]; RA calibrator 125.00 ng/ml) was 374 RLU and the B/B0 % ([2]; RA calibrator 250.00 ng/ml) was 4%. The RLU ([2]; RA calibrator 250.00 ng/ml) was 247 RLU, the B/B0 % ([2]; RA calibrator 500.00 ng/ml) was 2% and the RLU ([2]; RA calibrator 500.00 ng/ml) was 134 RLU. The Cross-reactivity [2] was “Cross-reactivity 100%” and the IC50 [2] was “IC50 = 5.21 ng/ml,”.

For `CCO[C@@H]1O[C@H](C(=O)O)[C@@H](O)[C@H](O)[C@H]1O` [Ethyl glucuronide], the “Concentration exhibiting no cross-reactivity” value [1] was 0.1 mg/mL and the “No measurable CR at given concentration” value [2] was 100 µg/mL.

In the case of `COC(=O)C(c1ccccc1)C1CCCCN1` (stereo not shown) [Methylphenidate Hydrochloride], the IC50 [3] is reported as >>>80 ng/ml, the “Ave OD” value ([3]; calibrator 1.25 ng/ml) is reported as 1.677 and the “Ave OD” value ([3]; calibrator 2.5 ng/ml) is reported as 1.644. The “Ave OD” value ([3]; calibrator 5 ng/ml) was 1.635, the “Ave OD” value ([3]; calibrator 10 ng/ml) was 1.563 and the “Ave OD” value ([3]; calibrator 20 ng/ml) was 1.476. The “Ave OD” value ([3]; calibrator 40 ng/ml) was 1.402, the “Ave OD” value ([3]; calibrator 80 ng/ml) was 1.311 and the B/Bo ([3]; calibrator 1.25 ng/ml) was 101.9. The B/Bo ([3]; calibrator 2.5 ng/ml) was 99.9, the B/Bo ([3]; calibrator 5 ng/ml) was 99.4 and the B/Bo ([3]; calibrator 10 ng/ml) was 95.0. The B/Bo ([3]; calibrator 20 ng/ml) was 89.7, the B/Bo ([3]; calibrator 40 ng/ml) was 85.2 and the B/Bo ([3]; calibrator 80 ng/ml) was 79.7. For the same compound, the “% CR” value [3] was <<<10.5%.

With `CC(=O)Nc1ccc(O)cc1` [Acetoaminophen] the “Concentration exhibiting no cross-reactivity” value [1] was 2.5 mg/mL and the “No measurable CR at given concentration” value [2] was 1000 µg/mL.

In the case of `Clc1cccc(N2CCNCC2)c1` [mCPP], the “No measurable CR at given concentration” value [2] is reported as 10 µg/mL.
